Data: article PMC10778758, “Dithioethanol (DTE)-Conjugated Deoxyribose Cyclic Dinucleotide Prodrugs (DTE-dCDNs) as STING Agonist” (International Journal of Molecular Sciences, 2023)

Key:
[1] = In vitro serum stability assay in 20% fetal bovine serum; format: in vitro ADME; settings: 100 μM, 20% FBS, 37 °C
Protocol: In vitro serum stability assay. Each compound (100 μM) was incubated at 37 °C in the reaction buffer including 20% fetal bovine serum (FBS, GIBCO, Thermo Fisher Scientific, Waltham, MA, USA), 10 mM PBS (pH 7.4), and 1 mM MgCl2. At various times, aliquots of the reaction mixture were collected and stopped by adding 50 μL MeCN and diluted with 50 μL water. The reaction mixture was then centrifuged at 10,000 rpm for 5 min, leaving 100 μL supernatant for the HPLC assay. An amount of 10 μL of each aliquot was injected directly into HPLC (Agilent 1260 Infinity HPLC equipped with a UV detector; column Agilent ZORABX SB-C18 5 μm [4.6 × 150 mm; detection at 254 nm; column temperature 25 °C] for analysis. Amounts of 10 mM TEAA buffer (solvent A) and MeCN (solvent B) were used as the mobile phase with a flow rate of 1 mL/min. The gradient was set as the following: 0–2 min: 98% A/2% B; 2–6 min: 98% A/2% B to 100% B; 6–10 min: 100% B; 10–13 min: 100% B to 98% A/2% B; 13–15 min: 98% A/2% B. The % remaining of the test compounds after incubation in the serum was then calculated.
Figure 4 Parent dCDN of DTE-dCDN prodrug 9 retained a high serum stability. The serum stability analysis of (a) prodrug 9, (b) 3′,3′-c-di-dAMP, (c) 2′,3′-cGAMP and (d) ADU-S100 were determined in 20% FBS. Each compound (100 μM) was incubated in 20% FBS at 37 °C. At various times (0, 2, 4, 8, 12, 24, 48, 72 h), aliquots of the reaction mixture were analyzed with HPLC at 254 nm. The % remaining of test compounds after incubation in serum was calculated.

THP1-Lucia cells [2] = assay: THP1-Lucia cell-based luciferase reporter assay; settings: 24 h
Protocol: THP1-Lucia cell-based reporter assay. THP1-Lucia cells were seeded into a 24-well plate at a density of 5 × 10^4 cells/well. […] Finally, the medium was collected to determine the luciferase activity using QUANTI-Luc (InvivoGen, San Diego, CA, USA) according to the manufacturer′s instruction to calculate the EC50 values of the tested compounds. The results are expressed as the mean ± SD from three independent experiments. Emax values were normalized to the response induced by 2′,3′-cGAMP in each assay and expressed as a mean percentage ± SD from three independent experiments. The THP1-Lucia cell line was obtained from Prof. Junmin Quan from Peking University (Beijing, China).
Figure 5 The luciferase-based assay in the THP1-Lucia reporter cell line. (a) EC50 values represent the mean (±SD) of three independent experiments. (b) Emax values represent the mean (±SD) of three independent experiments.

THP-1 cells = assay: Uptake of DTE-dCDN prodrug, intracellular levels by LC/MS/MS; settings: THP-1 cells treated with 100 μM 3′,3′-c-di-dAMP, within 6 h
Protocol: Uptake of DTE-dCDN Prodrug. THP-1 cells were seeded at a concentration of 5 × 10^6 cells/mL into a 12-well plate. After 16 h of incubation at 37 °C in a 5% CO2 atmosphere, the compounds were added to cell cultures and the cells were collected at time points of 1 h, 2 h, 4 h, 6 h, 8 h, 12 h, and 24 h by centrifugation for 1 min at 1000× g. The media was removed completely, and the cells were washed twice with 800 μL of ice-cold PBS before being lysed with 400 μL ice-cold 70% methanol. Lysates were incubated overnight at −20 °C and then centrifuged for 20 min at 13,000× g to remove cellular debris. The supernatant was analyzed via LC/MS/MS (Agilent 1290 Infinity II/6470A)
(a) The intracellular concentration of the prodrug 9 in THP-1 cells. (b) The intracellular concentration of the parent dCDN (3′,3′-c-di-dAMP) in THP-1 cells. THP-1 cells were treated with 10 μM prodrug 9 or 100 μM parent dCDN (3′,3′-c-di-dAMP) for the indicated period of time (1, 2, 4, 6, 8, 12, 24 h), and the intracellular concentration of the metabolites in cellular extracts was determined with liquid chromatograph MS/MS analysis.

CT-26 cells = assay: RT-qPCR of IFN-β mRNA in CT-26 cells; format: cell-based; settings: CT-26, prodrug 9 and ADU-S100 10 μM, CDNs 100 μM, 4 h
Protocol: Real-time quantitative PCR (RT-qPCR). The mRNA expression levels of diverse cytokines were measured using quantitative RT-PCR (RT-qPCR) assays. THP-1 cells or CT26 cells were incubated with the compounds for 4 h, subsequently harvested for RNA isolation according to the manufacturer’s instructions of RNApure Tissue&Cell Kit (DNase I) (CWBIO, Cambridge, MA, USA catalogue no. CW0560S). Next, 1 μg RNA was reversely transcribed to cDNA by TransScript All-in-One First-Strand cDNA Synthesis SuperMix for qPCR (One-Step gDNA Removal) (TransGen, Beijing, China). To examine the mRNA levels, real-time PCR was performed in a CFX96 Real-Time PCR system (Bio-RAD, Hercules, CA, USA) using PerfectStart Green qPCR Super Mix (TransGen) and primers (Sangon Biotech, Shanghai, China). The expression level was calculated according to the formula (2^−∆∆Ct) using the GAPDH or β-actin as the internal reference gene and the relative gene expression fold was normalized to the DMSO-treated cells. The THP-1 and CT26 cell lines were obtained from American Type Culture Collection (ATCC, Manassas, VA, USA). […]
expression levels of IFN-β were assessed by real-time quantitative PCR (qPCR) under the treatment of prodrug 9 (10 μM), 3′,3′-c-di-dAMP (100 μM), 2′,3′-cGAMP (100 μM) and ADU-S100 (10 μM) for 4 h.
Figure S3. […]
levels of IFN-β were assessed by an enzyme-linked immunosorbent assay (ELISA). […]

THP1-Lucia cells [3] = assay: Luciferase activity in THP1-Lucia cells pretreated with STING or TBK1 inhibitor; format: cell-based; settings: inhibitor 10 μM pretreated 1 h, prodrug 9 10 μM, 24 h
Protocol: The endogenous 2′,3′-cGAMP was set as the positive control group. H-151 [26] and BX795 [27] were selected to use as the STING inhibitor and TBK1 inhibitor, respectively.
Figure 6 Prodrug 9 activated the IFN-β promoter responsive luciferase expression through STING signaling pathway. Prodrug 9 (10 μM) and 2′,3′-cGAMP (10 μM) were added to THP1-Lucia cells alone or pretreated with vehicle or H-151 (10 μM), BX795 (10 μM) for 1 h, respectively. The luciferase activity was measured with Quanti-Luc reagent via a 24 h incubation at 37 °C. Data are presented as mean ± SD, n = 3.

SMILES	T1/2 (half-life period) [1] [h]	degraded at 72 h [1]	effect on induction of luciferase expression by prodrug 9 (THP1-Lucia cells [3])	also measured
Nc1nc2c(ncn2[C@@H]2O[C@@H]3COP(=O)(O)O[C@H]4[C@@H](O)[C@H](n5cnc6c(N)ncnc65)O[C@@H]4COP(=O)(O)O[C@@H]2[C@@H]3O)c(=O)[nH]1 [2′,3′-cGAMP]	31	80%		
Nc1ncnc2c1ncn2[C@H]1C[C@@H]2OP(=O)(O)OC[C@H]3O[C@@H](n4cnc5c(N)ncnc54)C[C@@H]3OP(=O)(O)OC[C@H]2O1 [3′,3′-c-di-dAMP]	> 72	did not show any degradation		EC50 (THP1-Lucia cells [2]): 41.3 µM; intracellular levels of the parent dCDN 3′,3′-c-di-dAMP (THP-1 cells): not detectable
Nc1ncnc2c1ncn2[C@@H]1O[C@@H]2COP(=O)([S-])O[C@@H]3[C@H](O)[C@@H](COP([O-])(=S)O[C@H]2[C@H]1O)O[C@H]3n1cnc2c(N)ncnc21.[Na+].[Na+] (stereo partly shown) [ADU-S100, reference compound]	67			induction of IFN-β transcription in CT-26 cells (CT-26 cells): no significant induction
O=C(NCCCNc1nc(Nc2cccc(NC(=O)N3CCCC3)c2)ncc1I)c1cccs1 [BX795]			could block the induction of the luciferase expression	
CCc1ccc(NC(=O)Nc2c[nH]c3ccccc23)cc1 [H-151]			could block the induction of the luciferase expression	
